Each structure is given as a SMILES string. Read-outs that look alike come from different tables or passages of the source. Numbered stars: 1 amine (or outer) side, 2 acyl side, 3 side chain; on linkers, the order of the positions; unused ones are H or OH. Bridge positions count the residues as written; N and C are the ends. Square brackets hold non-standard residues; d marks the D form. Peptide text beside a SMILES is read from it. * marks the point of attachment. ξ: configuration not given here. X19 = Cc1cccc(-c2ccc(C[C@H](N[*:1])C(=O)[*:2])cc2)c1; Trp(7-Cl) = N[C@@H](Cc1c[nH]c2c(Cl)cccc12)C(=O)O; Phe(4-COOH) = N[C@@H](Cc1ccc(C(=O)O)cc1)C(=O)O; Bip = N[C@@H](Cc1ccc(-c2ccccc2)cc1)C(=O)O; Phe(3-OMe) = COc1cccc(C[C@H](N)C(=O)O)c1; Phe(4-NH2) = Nc1ccc(C[C@H](N)C(=O)O)cc1; Phe(3-Me) = Cc1cccc(C[C@H](N)C(=O)O)c1; 4Pal = N[C@@H](Cc1ccncc1)C(=O)O; Cha = N[C@@H](CC1CCCCC1)C(=O)O; Ile(3ξ) = CCC(C)[C@H](N)C(=O)O; AllylGly = C=CC[C@H](N)C(=O)O; Thr(3ξ) = CC(O)[C@H](N)C(=O)O; Hpra = C#CCC[C@H](N)C(=O)O; Carboxymethyl = O=C(O)C*; NMeA = CN[C@@H](C)C(=O)O; Orn = NCCC[C@H](N)C(=O)O; Dab = NCC[C@H](N)C(=O)O; Dap = NC[C@H](N)C(=O)O; Bn = c1ccc(C*)cc1; ξC = NC(CS)C(=O)O

IC50 data for 15 molecules are collected here from US20240409585A1, “MACROCYCLIC IMMUNOMODULATORS” (priority 2021, published 2024).

The experiment addresses T1, PE-labeled human PD-L1-Ig binding to Jurkat cell line over-expressing human PD-1 (Jurkat-PD-1) (Homo sapiens, UniProt Q15116).
T1 construct: expressed in transfected cells; host or cells: Jurkat
As to the kind of experiment: Jurkat-PD-1 Cell Binding High-Content Screening Assay (CBA): Method 1. As to conditions: Jurkat-hPD-1 cells, PE-labeled PD-L1-Ig 20 nM final.

[1] abbreviates: read-out: Jurkat HPDL1 PD1 IC50 (uM) (Method 1).

T1 sequence (Q15116 25-288): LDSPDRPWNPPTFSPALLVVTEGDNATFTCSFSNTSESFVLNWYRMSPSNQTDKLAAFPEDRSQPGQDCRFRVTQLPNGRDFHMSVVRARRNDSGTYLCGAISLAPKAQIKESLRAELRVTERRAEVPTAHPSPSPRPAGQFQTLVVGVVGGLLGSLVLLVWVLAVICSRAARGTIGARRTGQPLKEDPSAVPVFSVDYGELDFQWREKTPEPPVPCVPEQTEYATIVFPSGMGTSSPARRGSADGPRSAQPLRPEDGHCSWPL

Take `CC(C)C[C@@H]1NC(=O)[C@H](Cc2c[nH]c3ccccc23)NC(=O)[C@H](CC(=O)O)NC(=O)[C@H](Cc2ccc(O)cc2)NC(=O)[C@H](Cc2ccccc2)NC(=O)CSC[C@@H](C(=O)N[C@@H](C)C(N)=O)NC(=O)[C@H](CO)NC(=O)[C@H](CCN)NC(=O)[C@H](CC(C)C)NC(=O)[C@H](CC(N)=O)NC(=O)[C@@H](CC(C)C)NC(=O)[C@H](C)N(C)C(=O)[C@H](C(C)C)NC(=O)[C@H](Cc2ccc(-c3ccccc3)cc2)NC1=O` [Compound 1538] ({CH2CO}-FYDWL[Bip]V[NMeA][dL]NL[Dab]SCA-NH2; thioether N-14): the IC50 (commonly the point on the concentration scale where inhibition reaches its midpoint) under setting [1] is 0.1 µM. The same measure, in the same setting: for `CC(C)C[C@@H]1NC(=O)[C@H](Cc2c[nH]c3ccccc23)NC(=O)[C@H](CC(=O)O)NC(=O)[C@H](Cc2ccc(OCC(=O)O)cc2)NC(=O)[C@H](Cc2ccncc2)NC(=O)CSC[C@@H](C(=O)NCC(N)=O)NC(=O)[C@H](CO)NC(=O)[C@H](C(C)C)NC(=O)[C@H](CC(C)C)NC(=O)[C@H](CC(N)=O)NC(=O)[C@@H](CC(C)C)NC(=O)[C@H](C)N(C)C(=O)[C@H](C(C)C)NC(=O)[C@H](Cc2ccc(-c3ccccc3)cc2)NC1=O` [Compound 1551] ({CH2CO}-[4Pal]Y(Carboxymethyl)DWL[Bip]V[NMeA][dL]NLVSCG-NH2; thioether N-14) the value was 0.01 µM; for `C=CC[C@@H]1NC(=O)[C@H](Cc2cccc(C)c2)NC(=O)[C@H](CC(=O)O)NC(=O)[C@H](Cc2ccncc2)NC(=O)[C@H](Cc2ccc(OCC(=O)O)cc2)NC(=O)CSCC(C(=O)NCC(N)=O)NC(=O)[C@H](CC=C)NC(=O)[C@H](C(C)C)NC(=O)[C@H](CC(C)C)NC(=O)[C@H](CC(N)=O)NC(=O)[C@@H](CC(C)C)NC(=O)[C@H](C)N(C)C(=O)[C@H](C(C)C)NC(=O)[C@H](Cc2ccc(-c3ccccc3)cc2)NC1=O` (stereo partly drawn) [Compound 1880] ({CH2CO}-Y(Carboxymethyl)[4Pal]D[Phe(3-Me)][AllylGly][Bip]V[NMeA][dL]NLV[AllylGly][ξC]G-NH2; thioether N-14), 0.05 µM. The same measure, in the same setting: the same measure for `Cc1cccc(-c2ccc(C[C@@H]3NC(=O)[C@H](CC(C)C)NC(=O)[C@H](Cc4c[nH]c5ccccc45)NC(=O)[C@H](CC(=O)O)NC(=O)[C@H](Cc4ccc(O)cc4)NC(=O)[C@H](Cc4ccccc4)NC(=O)CSC[C@@H](C(=O)N[C@@H](C)C(N)=O)NC(=O)[C@H](CO)NC(=O)[C@H](C(C)C)NC(=O)[C@H](CC(C)C)NC(=O)[C@H](CC(N)=O)NC(=O)[C@@H](C)NC(=O)[C@H](C)N(C)C(=O)[C@H](C(C)C)NC3=O)cc2)c1` [Compound 1788] ({CH2CO}-FYDWL[X19]V[NMeA][dA]NLVSCA-NH2; thioether N-14): 0.11 µM; for `CC(C)C[C@@H]1NC(=O)[C@H](CCCN)NC(=O)[C@@H](CC(C)C)NC(=O)[C@H](C)N(C)C(=O)[C@H](CCCNC(=N)N)NC(=O)[C@H](Cc2ccc(-c3ccccc3)cc2)NC(=O)[C@H](C(C)C)NC(=O)[C@H](Cc2c[nH]c3ccccc23)NC(=O)[C@H](CC(=O)O)NC(=O)[C@H](Cc2ccc(C(=O)O)cc2)NC(=O)[C@H](Cc2cnc[nH]2)NC(=O)CSC[C@@H](C(=O)N[C@@H](C)C(N)=O)NC(=O)[C@H]([C@@H](C)O)NC(=O)[C@H](C(C)C)NC1=O` [Compound 1149] ({CH2CO}-H[Phe(4-COOH)]DWV[Bip]R[NMeA][dL][Orn]LVTCA-NH2; thioether N-14): 0.07 µM. Still for that read-out and setting: the same measure for `CC(C)C[C@@H]1NC(=O)[C@H](CCCNC(=N)N)NC(=O)[C@@H](CC(C)C)NC(=O)[C@H](C)N(C)C(=O)[C@H](CCCNC(=N)N)NC(=O)[C@H](Cc2ccc(-c3ccccc3)cc2)NC(=O)[C@H](C(C)C)NC(=O)[C@H](Cc2c[nH]c3c(Cl)cccc23)NC(=O)[C@H](CC(=O)O)NC(=O)[C@H](Cc2ccc(O)cc2)NC(=O)[C@H](Cc2ccccc2)NC(=O)CSC[C@@H](C(=O)N[C@@H](C)C(N)=O)NC(=O)[C@H]([C@@H](C)O)NC(=O)[C@H](C(C)C)NC1=O` [Compound 1098] ({CH2CO}-FYD[Trp(7-Cl)]V[Bip]R[NMeA][dL]RLVTCA-NH2; thioether N-14): 0.13 µM; for `CC(C)C[C@H]1NC(=O)[C@H](C)N(C)C(=O)[C@H](C(C)C)NC(=O)[C@H](Cc2ccc(-c3ccccc3)cc2)NC(=O)[C@H](C(C)C)NC(=O)[C@H](Cc2c[nH]c3ccccc23)NC(=O)[C@H](CC(=O)O)NC(=O)[C@H](Cc2ccc(O)cc2)NC(=O)[C@H](Cc2ccc(OCC(=O)O)cc2)NC(=O)CSC[C@@H](C(=O)N[C@@H](C)C(N)=O)NC(=O)[C@H]([C@@H](C)O)NC(=O)[C@H](C(C)C)NC(=O)[C@H](CC2CCCCC2)NC(=O)[C@H](CCCNC(=N)N)NC1=O` [Compound 1486] ({CH2CO}-Y(Carboxymethyl)YDWV[Bip]V[NMeA][dL]R[Cha]VTCA-NH2; thioether N-14): 0.62 µM; for `CC(C)C[C@@H]1NC(=O)[C@H](CCCNC(=N)N)NC(=O)[C@@H](CC(C)C)NC(=O)[C@H](C)N(C)C(=O)[C@H](CCCNC(=N)N)NC(=O)[C@H](Cc2ccc(-c3ccccc3)cc2)NC(=O)[C@H](C(C)C)NC(=O)[C@H](Cc2c[nH]c3ccccc23)NC(=O)[C@H](CC(=O)O)NC(=O)[C@H](Cc2ccc(N)cc2)NC(=O)[C@H](Cc2ccccc2)NC(=O)CSC[C@@H](C(=O)N[C@@H](C)C(N)=O)NC(=O)[C@H]([C@@H](C)O)NC(=O)[C@H](C(C)C)NC1=O` [Compound 1082] ({CH2CO}-F[Phe(4-NH2)]DWV[Bip]R[NMeA][dL]RLVTCA-NH2; thioether N-14): 0.04 µM. In the case of `CC(C)C[C@@H]1NC(=O)[C@H](CCCNC(=N)N)NC(=O)[C@@H](CC(C)C)NC(=O)[C@H](C)N(C)C(=O)[C@H](CCC(=O)O)NC(=O)[C@H](Cc2ccc(-c3ccccc3)cc2)NC(=O)[C@H](C(C)C)NC(=O)[C@H](Cc2c[nH]c3ccccc23)NC(=O)[C@H](CC(=O)O)NC(=O)[C@H](Cc2ccc(O)cc2)NC(=O)[C@H](Cc2ccccc2)NC(=O)CSC[C@@H](C(=O)N[C@@H](C)C(N)=O)NC(=O)[C@H]([C@@H](C)O)NC(=O)[C@H](C(C)C)NC1=O` [Compound 1141] ({CH2CO}-FYDWV[Bip]E[NMeA][dL]RLVTCA-NH2; thioether N-14), under setting [1], the IC50 turned out to be 0.04 µM. Same read-out and setting: for `CCC(C)[C@@H]1NC(=O)[C@H](Cc2ccc(-c3ccccc3)cc2)NC(=O)[C@H](CC(C)C)NC(=O)[C@H](Cc2c[nH]c3ccccc23)NC(=O)[C@H](CC(=O)O)NC(=O)[C@H](Cc2ccc(OCC(=O)O)cc2)NC(=O)[C@H](C(C)O)NC(=O)CSC[C@@H](C(=O)N[C@@H](CC(N)=O)C(=O)O)NC(=O)[C@H](CC(C)C)NC(=O)[C@H](C(C)C)NC(=O)[C@H](CC(C)C)NC(=O)[C@H](CCN)NC(=O)[C@@H](CC(C)C)NC(=O)[C@H](C)N(C)C1=O` (stereo partly drawn) [Compound 2224] ({CH2CO}-[Thr(3ξ)]Y(Carboxymethyl)DWL[Bip][Ile(3ξ)][NMeA][dL][Dab]LVLCN-OH; thioether N-14) the value was 0.24 µM; for `C#CCC[C@H](NC(=O)[C@H](CCCN)NC(=O)[C@@H]1CSCC(=O)N[C@@H](Cc2ccncc2)C(=O)N[C@@H](Cc2ccc(OCC(=O)O)cc2)C(=O)N[C@@H](CC(=O)O)C(=O)N[C@@H](Cc2cccc(C)c2)C(=O)N[C@@H](C(C)C)C(=O)N[C@@H](Cc2ccc(-c3ccccc3)cc2)C(=O)N[C@@H](C(C)C)C(=O)N(C)[C@@H](C)C(=O)N[C@H](CC(C)C)C(=O)N[C@@H](CCN)C(=O)N[C@@H](CC2CCCCC2)C(=O)N[C@@H](C(C)C)C(=O)N[C@@H]([C@@H](C)O)C(=O)N1)C(N)=O` [Compound 1878] ({CH2CO}-[4Pal]Y(Carboxymethyl)D[Phe(3-Me)]V[Bip]V[NMeA][dL][Dab][Cha]VTC[Orn][Hpra]-NH2; thioether N-14), 0.01 µM; for `COc1cccc(C[C@@H]2NC(=O)[C@H](CN)NC(=O)CSC[C@@H](C(=O)NCC(N)=O)NC(=O)[C@H](CO)NC(=O)[C@H](C(C)C)NC(=O)[C@H](CC(C)C)NC(=O)[C@H](CC(N)=O)NC(=O)[C@@H](CC(C)C)NC(=O)[C@H](C)N(C)C(=O)[C@H](C(C)C)NC(=O)[C@H](Cc3ccc(-c4ccccc4)cc3)NC(=O)[C@H](CC(C)C)NC(=O)[C@H](Cc3c[nH]c4ccccc34)NC(=O)[C@H](CC(=O)O)NC2=O)c1` [Compound 1522] ({CH2CO}-[Dap][Phe(3-OMe)]DWL[Bip]V[NMeA][dL]NLVSCG-NH2; thioether N-14), 0.05 µM. Turning to `CC(C)C[C@@H]1NC(=O)CSC[C@@H](C(=O)N[C@@H](C)C(N)=O)NC(=O)[C@H](CO)NC(=O)[C@H](C(C)C)NC(=O)[C@H](CC(C)C)NC(=O)[C@H](CCCNC(=N)N)NC(=O)[C@@H](CC(C)C)NC(=O)[C@H](C)N(C)C(=O)[C@H](CCCNC(=N)N)NC(=O)[C@H](Cc2ccc(-c3ccccc3)cc2)NC(=O)[C@H](C(C)C)NC(=O)[C@H](Cc2c[nH]c3ccccc23)NC(=O)[C@H](CC(=O)O)NC(=O)[C@H](Cc2ccc(O)cc2)NC1=O` [Compound 1037] ({CH2CO}-LYDWV[Bip]R[NMeA][dL]RLVSCA-NH2; thioether N-14), the IC50 under setting [1] worked out at 0.14 µM. The same measure, in the same setting: for `CC(C)C[C@@H]1NC(=O)[C@H](Cc2c[nH]c3ccccc23)NC(=O)[C@H](CC(=O)O)NC(=O)[C@H](Cc2ccc(OCC(=O)O)cc2)NC(=O)[C@H](Cc2ccccc2)NC(=O)CSC[C@@H](C(=O)N[C@@H](C)C(N)=O)NC(=O)[C@H](CO)NC(=O)[C@H](C(C)C)NC(=O)[C@H](CC(C)C)NC(=O)[C@H](CC(=O)O)NC(=O)[C@@H](CC(C)C)NC(=O)[C@H](C)N(C)C(=O)[C@H](C(C)C)NC(=O)[C@H](Cc2ccc(-c3ccccc3)cc2)NC1=O` [Compound 2027] ({CH2CO}-FY(Carboxymethyl)DWL[Bip]V[NMeA][dL]DLVSCA-NH2; thioether N-14) the value was 0.02 µM. In turn, `CC(C)C[C@@H]1NC(=O)[C@H](Cc2c[nH]c3ccccc23)NC(=O)[C@H](CC(=O)O)NC(=O)[C@H](Cc2ccc(OCC(=O)O)cc2)NC(=O)[C@H](Cc2ccccc2)NC(=O)CSC[C@@H](C(=O)N[C@@H](C)C(N)=O)NC(=O)[C@H](CO)NC(=O)[C@H](C(C)C)NC(=O)[C@H](CC(C)C)NC(=O)[C@H](CC(N)=O)NC(=O)[C@@H](CC(C)C)NC(=O)[C@H](C)N(C)C(=O)[C@H](C(C)C)NC(=O)[C@H](Cc2ccc(OCc3ccccc3)cc2)NC1=O` [Compound 2028] ({CH2CO}-FY(Carboxymethyl)DWLY(Bn)V[NMeA][dL]NLVSCA-NH2; thioether N-14) returned an IC50 (Jurkat HPDL1 PD1 IC50 (uM) (Method 1)) of 0.48 µM.
